The values below come from US8575197B2, “Pyrolinone derivative and pharmaceutical composition comprising the same” (Shionogi & Co., Ltd., priority 2008, dated 2013).

The target of the assay is human P2X3 receptor (Homo sapiens (Human), UniProt P56373). Description: P2X3 receptor inhibition, ATP-evoked Fluo-3 calcium fluorescence (FDSS 3000). The following applies: C6BU-1 cell transfected with human P2X3 receptor gene; ATP-evoked Fluo-3 fluorescence. In kind it is cell-based. The method, boiled down:
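C6BU-1 cells stably transfected with human P2X3, loaded with 4 μM Fluo-3-AM for 1 h at 37 °C in HEPES buffer pH 7.5 with probenecid. Compound added 5 min before 40 nM ATP solution; fluorescence followed 3 min. IC50 from ratio of peak post-ATP to baseline fluorescence.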

Sequence of human P2X3 receptor (P56373 whole entry): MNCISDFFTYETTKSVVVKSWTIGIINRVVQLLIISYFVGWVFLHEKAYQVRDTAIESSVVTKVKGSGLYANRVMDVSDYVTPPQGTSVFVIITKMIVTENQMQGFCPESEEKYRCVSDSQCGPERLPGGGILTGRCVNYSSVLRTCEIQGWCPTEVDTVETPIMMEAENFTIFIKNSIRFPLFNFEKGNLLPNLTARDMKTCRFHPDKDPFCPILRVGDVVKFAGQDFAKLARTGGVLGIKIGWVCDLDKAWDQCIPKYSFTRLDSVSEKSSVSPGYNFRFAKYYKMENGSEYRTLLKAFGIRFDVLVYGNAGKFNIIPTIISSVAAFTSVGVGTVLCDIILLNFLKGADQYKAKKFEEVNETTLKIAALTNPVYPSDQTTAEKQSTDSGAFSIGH

One may read the IC50 as the concentration at which inhibition is half-maximal. As to `COc1ccc(-c2n[nH]c3c2C(c2ccccc2OC)N(CCc2ccco2)C3=O)cc1` (stereo not shown) [II-225], the IC50 was 979 nM. To `CC(C)c1n[nH]c2c1C(c1ccccc1CN(C)C)N(c1ccc(-c3ccsc3)cc1)C2=O` (stereo not shown) [II-084] belongs 18 nM; to `COC(=O)COc1ccccc1C1C(C(=O)C(C)(C)C)=C(O)C(=O)N1c1ccc(-c2ccsc2)cc1` (stereo not shown) [Compound I-114], 12 nM; to `COc1ccccc1C1C(C(=O)C(C)C)=C(O)C(=O)N1c1ccc(-c2ccsc2)c(N)c1` (stereo not shown) [Compound I-237], 705 nM. To `CC(C)(C)C(=O)C1=C(O)C(=O)N(c2ccc(-c3cccs3)cc2)C1c1cccc[n+]1[O-]` (stereo not shown) [Compound I-112] belongs 388 nM; to `COCc1ccccc1C1C(C(=O)CC(C)C)=C(O)C(=O)N1c1ccc(C2=NCCS2)cc1` (stereo not shown) [Compound I-414], 268 nM. To `COc1ccc2sc(N3C(=O)C(O)=C(C(=O)C(C)(C)C)C3c3ccccc3OC)nc2c1` (stereo not shown) [Compound I-038] belongs 926 nM; to `COCOc1ccccc1C1C(C(=O)C(C)C)=C(O)C(=O)N1c1ccc(-c2cccs2)cc1` (stereo not shown) [Compound I-227], 8 nM. For `COc1ccccc1C1c2c(C(C)(C)C)n[nH]c2C(=O)N1c1ccc(-c2ccoc2)nc1` (stereo not shown) [II-253], the IC50 is 20 nM. For `CC(C)c1n[nH]c2c1C(c1cccnc1OCCO)N(c1ccc(-c3ccsc3)cc1)C2=O` (stereo not shown) [II-045] the value was 16 nM; for `COc1ccccc1C1c2c(C(C)(C)C)nn(C(=O)OC(C)(C)C)c2C(=O)N1c1ccc(Br)cc1` (stereo not shown) [II-211], 135 nM; for `COc1ccccc1C1C(C(=O)C(C)(C)CO)=C(O)C(=O)N1c1ccc(SC)cc1` (stereo not shown) [Compound I-068], 305 nM.

As to `COc1ccccc1C1c2c(C(C)(C)C)n[nH]c2C(=O)N1c1ccc(C(C)(C)C)cc1` (stereo not shown) [II-003], the IC50 stood at 140 nM. For `CN(C)CCOc1ccccc1C1c2c(C(C)(C)C)n[nH]c2C(=O)N1c1ccc(-c2ccon2)cc1` (stereo not shown) [II-030] the value was 128 nM; for `COCCOc1ccccc1C1c2c(C(C)(C)C)n[nH]c2C(=O)N1c1ccc(-c2ccoc2)cc1` (stereo not shown) [II-125], 10 nM; for `COCc1ccccc1C1C(C(=O)C(C)C)=C(O)C(=O)N1c1ccc(-c2cc(C)on2)cc1` (stereo not shown) [Compound I-458], 699 nM. For `COc1ccccc1C1C(C(=O)C(C)C)=C(O)C(=O)N1c1ccc(-c2ccsc2)c(O)c1` (stereo not shown) [Compound I-240] the value was 185 nM; for `Cc1noc(-c2ccc(N3C(=O)C(O)=C(C(=O)C(C)C)C3c3ccccc3COC(C)C)cc2)n1` (stereo not shown) [Compound I-552], 186 nM. To `Cc1ccc(-c2ccc(N3C(=O)C(O)=C(C(=O)CC(C)C)C3c3cccnc3C(=O)N(C)C)cc2)s1` (stereo not shown) [Compound I-574] belongs 280 nM; to `COc1ncccc1C1C(C(=O)CC(C)(C)C)=C(O)C(=O)N1c1ccc(-c2ccsc2)cc1` (stereo not shown) [Compound I-462], 427 nM; to `CC(C)(C)c1n[nH]c2c1C(c1ccccc1OCCO)N(c1ccc(-c3ccon3)cc1)C2=O` (stereo not shown) [II-100], 31 nM. For `C/N=C1/CC(C)(C)C(=O)OC2=C1C(c1ccccc1OC)N(c1ccc(-c3ccsc3)cc1)C2=O` (stereo not shown) [Compound I-587], the IC50 is 374 nM. For `COCc1ccccc1C1C(C(=O)c2cccnc2)=C(O)C(=O)N1c1ccc(-c2ccsc2)cc1` (stereo not shown) [Compound I-461] the value was 36 nM. For `Cc1ccc(-c2ccc(N3C(=O)C(O)=C(C(=O)CC(C)C)C3c3ccccc3OC(C)C)cc2)o1` (stereo not shown) [Compound I-398] the value was 14 nM; for `COCCOc1ncccc1C1c2c(C(C)(C)C)n[nH]c2C(=O)N1c1ccc(-c2ccco2)cc1` (stereo not shown) [II-037], 8 nM; for `COC(=O)COc1ccccc1C1c2c(C(C)(C)C)n[nH]c2C(=O)N1c1ccc(-c2ccon2)cc1` (stereo not shown) [II-028], 14 nM.

As for `COCCOc1ncccc1C1c2c(C(C)C)n[nH]c2C(=O)N1c1ccc(-c2ccon2)cc1` (stereo not shown) [II-279], the IC50 is 378 nM. For `Cc1nc(-c2ccc(N3C(=O)C(O)=C(S(=O)(=O)c4ccccc4)C3C3CCCCC3)cc2)no1` (stereo not shown) [Compound I-499] the value was 398 nM.

Consider `COc1ccccc1C1C(C(=O)C(C)C)=C(O)C(=O)N1c1ccc(-c2cc(C)on2)cc1` (stereo not shown) [Compound I-457], for which the IC50 was determined as 488 nM. As for `COCc1ccccc1[C@@H]1C(C(=O)C(C)C)=C(O)C(=O)N1c1ccc(-c2cccs2)cc1` [Compound I-394], the IC50 came to 11 nM. For `COCCOc1ccccc1[C@@H]1C(C(=O)C(C)C)=C(O)C(=O)N1c1ccc(-c2ccoc2)cc1` [Compound I-208] the value was 14 nM; for `CNC(=O)COc1ccccc1C1C(C(=O)C(C)C)=C(O)C(=O)N1c1ccc(-c2ccsc2)cc1` (stereo not shown) [Compound I-188], 22 nM.

Consider `Cc1ccc(-c2ccc(N3C(=O)C(O)=C(C(=O)C(C)C)C3c3cccnc3OCCCO)cc2)o1` (stereo not shown) [Compound I-478], for which the IC50 was determined as 34 nM. For `Cc1ccc(-c2ccc(N3C(=O)C(O)=C(C(=O)CC(C)C)C3c3cccnc3C(=O)OC(C)C)cc2)s1` (stereo not shown) [Compound I-504] the value was 238 nM; for `COc1ccc(-c2n[nH]c3c2C(c2ccccc2OCCO)N(c2nc4ccc(OC)cc4s2)C3=O)cc1` (stereo not shown) [II-118], 429 nM; for `COc1ccccc1[C@@H]1C(C(=O)C(C)C)=C(O)C(=O)N1c1ccc(-c2ccoc2)cc1` [Compound I-202], 40 nM. For `Cc1ncccc1C1c2c(C(C)(C)C)n[nH]c2C(=O)N1c1ccc(-c2cccs2)cc1` (stereo not shown) [II-121] the value was 464 nM; for `CC(C)C(=O)C1=C(O)C(=O)N(c2ccc(-c3ccsc3)cc2)C1c1ccccc1OCc1nnn[nH]1` (stereo not shown) [Compound I-217], 12 nM. Take `COc1ccccc1C1C(C(=O)C(C)(C)C)=C(O)C(=O)N1c1ccc(SC)cc1` (stereo not shown) [Compound I-052]: the IC50 stood at 187 nM. With `COc1ccccc1C1c2c(C(C)(C)C)n[nH]c2C(=O)N1c1ccc(CN(C)C)cc1` (stereo not shown) [II-072], the IC50 is 739 nM. For `CC(C)(C)c1n[nH]c2c1C(c1ccccc1C(=O)O)N(c1ccc(-c3ccsc3)cc1)C2=O` (stereo not shown) [II-131] the value was 88 nM; for `Cc1nc(-c2ccc(N3C(=O)C(O)=C(C(=O)C(C)C)C3c3ccccc3OCC3OCCO3)cc2)no1` (stereo not shown) [Compound I-501], 52 nM. For `COCOc1ccccc1C1C(C(=O)C(C)C)=C(O)C(=O)N1c1ccc(-c2ccco2)cc1` (stereo not shown) [Compound I-230] the value was 18 nM; for `COc1ccccc1C1C(C(=O)CC(C)C)=C(O)C(=O)N1c1ccc(-c2ccc(C)s2)cc1` (stereo not shown) [Compound I-327], 93 nM.

As to `Cc1nc(-c2ccc(N3C(=O)C(O)=C(C(=O)CC(C)C)C3c3ccccc3OC(C)C)cc2)no1` (stereo not shown) [Compound I-317], the IC50 stood at 73 nM.

Turning to `COc1ccccc1C1C(C(=O)C(C)C)=C(O)C(=O)N1c1ccc(-c2ccsc2)c(F)c1` (stereo not shown) [Compound I-235], the IC50 amounted to 35 nM. For `COCc1ccccc1C1C(C(=O)C(C)C)=C(O)C(=O)N1c1ccc(-c2ccsc2)cc1` (stereo not shown) [Compound I-186] the value was 13 nM; for `CC(C)(C)c1n[nH]c2c1C(c1cccnc1OCCO)N(c1ccc(-c3ccon3)cc1)C2=O` (stereo not shown) [II-036], 231 nM. Consider `CC(C)c1n[nH]c2c1C(c1ccccc1NS(C)(=O)=O)N(c1ccc(-c3ccsc3)cc1)C2=O` (stereo not shown) [II-088], for which the IC50 was found to be 4 nM.

In the case of `COCCOc1ccccc1C1C(C(=O)C(C)C)=C(O)C(=O)N1c1ccc(-c2csc(C)n2)cc1` (stereo not shown) [Compound I-424], the IC50 amounted to 519 nM.

Regarding `COc1ccccc1C1c2c(C(C)(C)CO)n[nH]c2C(=O)N1c1ccc(-c2ccoc2)cn1` (stereo not shown) [II-250], the IC50 was 43 nM. For `COCCOc1cc(F)ccc1C1C(C(=O)C(C)C)=C(O)C(=O)N1c1ccc(-c2noc(C)n2)cc1` (stereo not shown) [Compound I-369] the value was 91 nM; for `CC(C)C(=O)C1=C(O)C(=O)N(c2ccc(-c3ccsc3)cc2)C1c1cccnc1N1CCOCC1` (stereo not shown) [Compound I-525], 18 nM. For `COc1ncccc1C1c2c(C(C)(C)C)n[nH]c2C(=O)N1c1ccc(-c2cc(C)no2)cc1` (stereo not shown) [II-191] the value was 322 nM.

In the case of `COCCOc1ccccc1C1C(C(=O)CC(C)C)=C(O)C(=O)N1c1ccc(-c2ccc(C)s2)cc1` (stereo not shown) [Compound I-304], the IC50 turned out to be 21 nM. For `COc1ccccc1C1c2c(C(C)(C)C)n[nH]c2C(=O)N1c1ccc(-c2cccs2)nc1` (stereo not shown) [II-255] the value was 3 nM; for `CNC(=C(C)C)C1=C(O)C(=O)N(c2ccc(-c3ccsc3)cc2)C1c1cccnc1O` (stereo not shown) [Compound I-253], 193 nM; for `CCCC(CCC)C1C(C(=O)c2ccc(CO)cc2)=C(O)C(=O)N1c1ccc(-c2ccon2)cc1` (stereo not shown) [Compound I-006], 27 nM. To `COCc1ccccc1C1C(C(=O)C(C)C)=C(O)C(=O)N1c1ccc(-c2ccco2)cc1` (stereo not shown) [Compound I-354] belongs 57 nM; to `COCCN(C)C(=O)c1ccccc1C1C(C(=O)C(C)C)=C(O)C(=O)N1c1ccc(-c2ccc(C)o2)cc1` (stereo not shown) [Compound I-586], 254 nM; to `Cc1cc(-c2ccc(N3C(=O)C(O)=C(C(=O)C(C)C)C3c3ccccc3C(=O)N3CCOCC3)cc2)cs1` (stereo not shown) [Compound I-546], 395 nM. To `COCc1ccccc1C1C(C(=O)C2CCCC2)=C(O)C(=O)N1c1ccc(-c2ccsc2)cc1` (stereo not shown) [Compound I-516] belongs 33 nM; to `CC(=O)NCCOc1ccccc1C1c2c(C(C)C)n[nH]c2C(=O)N1c1ccc(-c2ccsc2)cc1` (stereo not shown) [II-176], 10 nM; to `COCCOc1ccccc1C1C(S(=O)(=O)C(C)C)=C(O)C(=O)N1c1ccc(-c2ccsc2)cc1` (stereo not shown) [Compound I-563], 42 nM. Turning to `COC(=O)Nc1ccccc1C1c2c(C(C)C)n[nH]c2C(=O)N1c1ccc(-c2ccsc2)cc1` (stereo not shown) [II-095], the IC50 was determined as 12 nM. For `COc1ccccc1C1c2c(C(=O)N(C)C)n[nH]c2C(=O)N1c1ccc(-c2ccsc2)cc1` (stereo not shown) [II-180] the value was 262 nM; for `COc1ncccc1C1c2c(C(C)(C)C)n[nH]c2C(=O)N1c1ccc(-c2ccsc2)nc1` (stereo not shown) [II-268], 24 nM.
